Ends that are not written are not given here.
Tests used:
α7 nicotinic-receptor = α7 nicotinic-receptor (Homo sapiens, UniProt P36544); settings: cited from earlier work
PC12 cells [1] = experiment: Acetylcholinesterase activity assay (AChE release from PC12 cells, Ellman reagent); assay type: cell-based; settings: % AChE release compared to untreated control
Experimental: AChE activity was measured using the Ellman reagent that measures the presence of thiol groups as a result of AChE activity. Cells were plated the day before the experiment as for the cell viability assay. […] The Ellman reagent was prepared as a mixture of the 3 solutions in a ratio 33(A):3(B):4(C). Absorbance measurements were taken at regular intervals (3, 10, 30 and 60 mins) across experiments at 405 nm.

[2] = Cell viability assay (Cell Counting Kit-8); assay type: cell-based; settings: % PC12 cell viability compared to untreated control;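 also: PC12 cells in 96-well plates, WST-8 turned into formazan by cellular dehydrogenases, absorbance read at 450 nm after 2 h with the reagent, signal proportional to living cell number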
From the text: (§1) A Cell Counting Kit-8 (CCK-8) was used as an improvement of the SRB technique used before. By utilizing the highly water-soluble tetrazolium salt WST-8, CCK-8 produces a water-soluble formazan dye upon reduction in the presence of an electron carrier. WST-8 is reduced by dehydrogenases in cells to give a yellow colored product (formazan), which is soluble in the tissue culture medium. The amount of the formazan dye generated by the activity of dehydrogenases in cells is directly proportional to the number of living cells. PC12 cells are plated in 200 μl of complete growth medium the day before the experiment in 96 well plates. […] Subsequently, 100 μl of growth medium is removed and 10 μl of CCK-8 (Cell Counting Kit-8) solution is added. The plate is incubated for 2 hours in the incubator and then placed in the absorbance plate reader. The absorbance must be measured at 450 nm.

PC12 cells [3] = experiment: Calcium fluorometry (Fluo-8, acetylcholine-induced calcium influx); assay type: cell-based; design: Calcium: scale not given here; settings: for Calcium: calcium influx value, control based on acetylcholine alone
From the text: A final criterion used to determine active peptides is the amount of calcium influx into PC12 cells caused by the peptide. The calcium influx value can be calculated as described in the methods section. The calcium value corresponds to the result from the experiment when applying T30 or Aβ alone or in conjunction with the small peptides. The control value for these experiments is based on the calcium influx induced by acetylcholine alone. Preferably, the peptide, derivative or analogue thereof has a calcium influx value of less than 120, and more preferably a value of 97-120.
PC12 cells are plated in 200 μl of complete growth medium the day before the experiment in 96 well plates. On the day of the experiment, the Fluo-8 solution (Abcam) is prepared (as per provider protocol). Subsequently, 100 μl of growth medium is removed and 100 μl of Fluo-8 solution is added. Treatments with T30 or Aβ in conjunction with NBP-14 or small peptides are added and incubated for 30 minutes in the incubator and 30 minutes room temperature.
After 1 hour, the plate is placed in the fluorescence plate reader (Fluostar). Before reading the fluorescence, acetylcholine (ACh) 100 μM is prepared and placed in the Fluostar injector. For each well, the reading will be formed by a basal fluorescence followed by acetylcholine injection that will induce an increase of calcium via nicotinic receptors. The effects of the peptides are then evaluated.

PC12 cells [4] = experiment: Value coefficient (AChE release vs PC12 cell viability) and filter selection; assay type: cell-based; settings: for Value AChE/Viability: 1.0 to 1.1 = protective, control = 1
From the text: AChE release vs PC12 cell viability (for which there is a significant negative correlation); • 2. In silico binding to the allosteric site of the α7 nicotinic-receptor; • 3. Calcium influx into PC12 cells; and • 4. Peptide size.

basal forebrain = experiment: VSDI of evoked responses in basal forebrain brain slices; design: species or system rat; settings: T30 2 μM & peptide 4 μM in perfusate; 30V electrical stimulation
Experimental: Coronal rat brain slices were prepared according to the procedure described in (Badin et al., 2013) but this time containing basal forebrain (+0.70 and −0.26 millimetres (mm) from bregma (Paxinos and Watson, 1998). Optical imaging using voltage-sensitive dyes was then performed as previously described (Badin et al., 2013, Neuropharmacology. 73C:10-18).
VSDI data were recorded in 4×4 mm 2-dimensional images, equivalent to 100×100 pixels—each pixel being 40×40 micrometres (μm), from which critical data were extracted. VSDI data was not gathered throughout the experimental run, but in fact was recorded in discrete periods of time 15 minutes in length. The inter-stimulus interval (ISI) between stimulations was 28 seconds and therefore, every recording epoch consisted of 32 successive stimulations. The data from all 32 stimulations were then averaged into a single file for each experimental condition and analysed using a VSDI data analysis toolbox specially made for MatLab (Bourgeois et al., 2014, PLoS One. 9:e108686). […] In order to quantify VSDI data however, the area under the curve was calculated (summed fluorescence fractional change, FIG. 11-22) between the moment of stimulation (t=0) and 280 ms after that; this method of quantification takes into account all the components of the immediate and longer-latency response. […]

PC12 cells [5] = experiment: Cell viability assay (Cell Counting Kit-8); assay type: cell-based; settings: toxic peptide alone; compared to untreated control;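 also: PC12 cells in 96-well plates, WST-8 turned into formazan by cellular dehydrogenases, absorbance read at 450 nm after 2 h with the reagent, signal proportional to living cell number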
From the text: as §1

cells = settings: inventors' previous work; cited from earlier work
rat brain slices = settings: inventors' previous work, cited from earlier work
[6] = T30 5 μM + small peptide 0.5 μM

Sequence of α7 nicotinic-receptor (P36544 23-502): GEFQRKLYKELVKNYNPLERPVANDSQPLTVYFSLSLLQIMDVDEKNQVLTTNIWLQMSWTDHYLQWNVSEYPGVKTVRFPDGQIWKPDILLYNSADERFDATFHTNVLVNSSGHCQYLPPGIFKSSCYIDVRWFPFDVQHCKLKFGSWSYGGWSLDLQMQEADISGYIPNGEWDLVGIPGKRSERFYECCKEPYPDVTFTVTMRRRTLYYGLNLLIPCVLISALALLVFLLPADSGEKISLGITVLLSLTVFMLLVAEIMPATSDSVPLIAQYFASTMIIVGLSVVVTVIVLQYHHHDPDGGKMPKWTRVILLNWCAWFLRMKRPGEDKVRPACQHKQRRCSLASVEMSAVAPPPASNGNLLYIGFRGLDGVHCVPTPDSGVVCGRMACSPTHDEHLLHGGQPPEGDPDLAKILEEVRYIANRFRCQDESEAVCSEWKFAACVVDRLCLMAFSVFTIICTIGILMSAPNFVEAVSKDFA

For `COc1ccc2c3c1O[C@H]1C[C@@H](O)C=C[C@@]31CCN(C)C2` [galanthamine], the “affinity for the α7 nicotinic-receptor” value (α7 nicotinic-receptor) is given as 10 µM.
In the case of “AEFHRWSSYMVHWK (listed as Homo sapiens) [T14, linear 14 amino acid peptide from the C-terminus of AChE]”, the “affinity for the α7 nicotinic-receptor” value (α7 nicotinic-receptor) is given as 0.005 µM.
KAEFHR [NBP-603, KAEFHR] gave an AChE (PC12 cells [1]; [6]) of 96.06%, a viability [2, 6] of 94.8% and a Calcium (PC12 cells [3]; T30 + small peptide) of 119.86. For the same compound, the “dose-dependent effect on calcium potentiation against T30” value (PC12 cells [3]; dose-dependent experiments, FIGS. 8 and 9) was “protect against T30 effects”, the “Value AChE/Viability” value (PC12 cells [4]; [6]) was 1.01 and the “neuroprotective agent against T30 when all four filters are taken into consideration” value (PC12 cells [4]; filters: value coefficient, in silico binding, calcium influx, peptide size) was “neuroprotective agents against T30”. For the same compound, the “reversal of T30-induced changes in evoked responses” value (basal forebrain) was “some significant effect in reversing the changes induced by T30”.
In the case of “KAEFHRWSSYMVHWKNQFDHYSKQDRCSDL [T30, reference compound]”, the “% PC12 cell viability” value (PC12 cells [5]) is reported as 74.309% and the value coefficient x (PC12 cells [4]; toxic peptide alone, x>1.1 means toxicity) is reported as 2.28.
In the case of “NBP14: cyclic peptide based on T14 sequence AEFHRWSSYMVHWK, cyclated via the terminal Alanine and Lysine residues (head-to-tail cyclised; listed as Homo sapiens)”, the “reversal of T30-induced changes in evoked responses” value (basal forebrain) is listed as “significantly reverse any kind of change induced by T30”, the “action at the α7 nicotinic-receptor” value (α7 nicotinic-receptor; inventors' previous work) is listed as “true antagonist of the α7 nicotinic-receptor” and the “compensatory AChE release” value (cells) is listed as “blocks compensatory AChE release induced by the toxicity of linear T14 and T30”. For the same compound, the “protection of cells from toxicity” value (cells) was “protect cells from linear T14, T30 and β-amyloid toxicity”, the “effect on Ca2+ concentrations” value (rat brain slices; given alone) was “no significant effects on Ca^2+ concentrations in rat brain slices” and the “effect on β-amyloid action on Ca2+ concentrations” value (rat brain slices) was “blocks the effects of β-amyloid”.
With WSSYMVHWKAEFHR [NBP-1409] the AChE (PC12 cells [1]; [6]) was 94.85%, the viability [2, 6] was 94.8% and the Calcium (PC12 cells [3]; T30 + small peptide) was 94.59. The “Value AChE/Viability” value (PC12 cells [4]; [6]) was 1.
YMVHW [NBP-512] showed an AChE (PC12 cells [1]; Aβ 5 μM + small peptide 0.5 μM) of 104.81%, a viability ([2]; Aβ 5 μM + small peptide 0.5 μM) of 104% and a Calcium (PC12 cells [3]; Aβ + small peptide) of 163.09. The “Value AChE/Viability” value (PC12 cells [4]; Aβ 5 μM + small peptide 0.5 μM) was 1.01.
Compound YMVHWKAEFHR [NBP-1112] has an AChE (PC12 cells [1]; Aβ 5 μM + small peptide 0.5 μM) of 98.77%, a viability ([2]; Aβ 5 μM + small peptide 0.5 μM) of 93.4% and a Calcium (PC12 cells [3]; Aβ + small peptide) of 127.62. The “Value AChE/Viability” value (PC12 cells [4]; Aβ 5 μM + small peptide 0.5 μM) was 1.06.
YMVHWKAEFHRW [NBP-1212] showed an AChE (PC12 cells [1]; [6]) of 88.29%, a viability [2, 6] of 88.3% and a Calcium (PC12 cells [3]; T30 + small peptide) of 78. For the same compound, the “Value AChE/Viability” value (PC12 cells [4]; [6]) was 1.

Reference: patent US10729749B2, “Neurodegenerative disorders” (priority 2014, dated 2020)
